From patent US20240409557A1, “5,6-FUSED AND 6,6-FUSED BICYCLIC ALCOHOLS AND ETHERS AND COMPOSITIONS FOR USE AS 15-PROSTAGLANDIN DEHYDROGENASE MODULATORS” (AMGEN INC., priority 2023, published 2024)

Tests used:
[1] = target: T1, human recombinant 15-PGDH (Homo sapiens, UniProt P15428); assay: Recombinant 15-PGDH enzymatic inhibition assay (PGDH-Lumi, NADH signal); assay type: biochemical; settings: recombinant 15-PGDH; 15 min pre-incubation, 60 min reaction with PGE2 and NAD+, NADH signal
T1 sequence (P15428 1-266): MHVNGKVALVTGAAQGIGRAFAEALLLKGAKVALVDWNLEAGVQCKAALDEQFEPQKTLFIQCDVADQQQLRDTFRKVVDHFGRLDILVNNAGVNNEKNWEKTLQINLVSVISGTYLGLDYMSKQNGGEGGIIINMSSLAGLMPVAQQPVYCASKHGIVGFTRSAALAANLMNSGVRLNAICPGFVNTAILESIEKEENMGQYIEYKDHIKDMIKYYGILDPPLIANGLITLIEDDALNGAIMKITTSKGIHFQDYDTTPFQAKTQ
Method in brief: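 Recombinant 15-PGDH pre-incubated 15 min at room temperature with compound (22 concentrations, 2-fold dilutions) in 50 mM Tris pH 7.5, 0.01% Tween-20, […].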

15-PGDH in A549 cells = target: T2, 15-PGDH in A549 cells (Homo sapiens, UniProt P15428); assay: A549 cellular 15-PGDH assay (PGE2 accumulation, HTRF); assay type: cell-based; settings: interleukin-stimulated, inhibitor 24 hrs, PGE2 by competitive HTRF, read-out: A549 Cell Assay IC50
T2 construct: endogenous in cells; host or cells: A549
T2 sequence (P15428 1-266): T1 sequence (P15428 1-266)
Method in brief: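 IL-13-stimulated A549 lung carcinoma cells released PGE2, which was measured in supernatants by competitive HTRF with a Eu-cryptate anti-PGE2 antibody and labelled PGE2. Signal falls as PGE2 rises. IC50 values were derived from the binding data.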

| IC50 [1] [nM] | IC50 (15-PGDH in A549 cells) [nM] | Compound |
| --- | --- | --- |
| 0.38 | 1.04 | COCCC(O)c1cc2ccc(-c3cnc4nn(C)cc4c3)nc2s1 (centres unmarked) [Compound B29, 3-methoxy-1-(6-(2-methyl-2H-pyrazolo[3,4-b]pyridin-5-yl)thieno[2,3-b]pyridin-2-yl)propan-1-ol] |
| 0.26 | 0.795 | Cn1cc2cc(-c3ccc4cc(C(O)C5CC(F)(F)C5)sc4n3)cnc2n1 (centres unmarked) [Compound B30, (3,3-difluorocyclobutyl)(6-(2-methyl-2H-pyrazolo[3,4-b]pyridine-5-yl)thieno[2,3-b]pyridine-2-yl)methanol] |
| 0.42 | 0.553 | Cn1cc2cc(-c3ccc4cc(C(O)C5CCC(F)(F)CC5)sc4n3)cnc2n1 (centres unmarked) [Compound B31, (4,4-difluorocyclohexyl)(6-(2-methyl-2H-pyrazolo[3,4-b]pyridin-5-yl)thieno[2,3-b]pyridin-2-yl)methanol] |
| 1.18 | 7.49 | COCC(O)c1cc2ccc(-c3cnc4nn(C)cc4c3)nc2s1 (centres unmarked) [Compound B32, 2-methoxy-1-(6-(2-methyl-2H-pyrazolo[3,4-b]pyridin-5-yl)thieno[2,3-b]pyridin-2-yl)ethanol] |
| 0.608 | 0.739 | Cn1cnc(-c2ccc3cc(C(O)C4CC(F)(F)C4)sc3n2)cc1=O (centres unmarked) [Compound B49, 6-(2-((3,3-difluorocyclobutyl)(hydroxy)methyl)thieno[2,3-b]pyridine-6-yl)-3-methylpyrimidin-4(3H)-one] |
| 1.15 | 3.22 | CC(C)n1cc2cc(-c3ccc4cc(C(O)C5CC(F)(F)C5)sc4n3)ccc2n1 (centres unmarked) [Compound B56, (3,3-difluorocyclobutyl)(6-(2-(2-propanyl)-2H-indazol-5-yl)thieno[2,3-b]pyridin-2-yl)methanol] |
| 0.488 | 2.5 | Cn1cc2cc(-c3ccc4cc(C(O)C5CCCC5)sc4c3)cnc2n1 (centres unmarked) [Compound B58, cyclopentyl(6-(2-methyl-2H-pyrazolo[3,4-b]pyridin-5-yl)-1-benzothiophen-2-yl)methanol] |
| 3.03 | 9.36 | Cn1cc2cc(-c3ccc4cc(C(O)CCC(F)(F)F)sc4c3)cnc2n1 (centres unmarked) [Compound B60, 4,4,4-trifluoro-1-(6-(2-methyl-2H-pyrazolo[3,4-b]pyridin-5-yl)-1-benzothiophen-2-y1)-1-butanol] |
| 0.944 | 0.437 | CC(C)n1ncc2cc(-c3ccc4cc(C(O)C5CC(F)(F)C5)sc4n3)cnc21 (centres unmarked) [Compound B65, (3,3-difluorocyclobutyl)(6-(1-(2-propanyl)-1H-pyrazolo[3,4-b]pyridin-5-yl)thieno[2,3-b]pyridin-2-yl)methanol] |
| 0.948 | 0.829 | [2H]C(O)(c1cc2ccc(-c3cnc4nn(C)cc4c3)nc2s1)C1CCOCC1 (stereo not drawn) [Compound B66, (6-(2-methyl-2H-pyrazolo[3,4-b]pyridin-5-yl)thieno[2,3-b]pyridin-2-yl)(tetrahydro-2H-pyran-4-yl)methan-d-ol] |
| 0.398 | 0.0124 | Cn1nnc2cc(-c3ccc4cc([C@H](O)C5CC(F)(F)C5)sc4n3)cnc21 [Compound B82R, (R)-(3,3-difluorocyclobutyl)(6-(3-methyl-3H-[1,2,3]triazolo[4,5-b]pyridin-6-yl)thieno[2,3-b]pyridin-2-yl)methanol] |
| 0.511 | 0.409 | Cn1cc2cc(-c3cnc4cc([C@H](O)C5CC(F)(F)C5)sc4n3)cnc2n1 [Compound B92R, (R)-(3,3-difluorocyclobutyl)(3-(2-methyl-2H-pyrazolo[3,4-b]pyridin-5-yl)thieno[2,3-b]pyrazin-6-yl)methanol] |
| 5.14 | 3.44 | Cn1cc2cc(-c3cnc4cc([C@@H](O)C5CC(F)(F)C5)sc4n3)cnc2n1 [Compound B92S, (S)-(3,3-difluorocyclobutyl)(3-(2-methyl-2H-pyrazolo[3,4-b]pyridin-5-yl)thieno[2,3-b]pyrazin-6-yl)methanol] |
